These results are taken from DBAASP.

Holding throughout (experiment): ≥ marks a high value that may be exact or a test limit, other limits are often not marked, values filed in µg/mL are converted to µM
The test system of test [1] is Candida albicans ATCC 200955.
The test system of test [2] is Enterococcus faecium ATCC 700221.
The subject of test [3] is Escherichia coli ATCC 25922.
For test [4], the system named is Pseudomonas aeruginosa ATCC 27853.
Test [5] concerns Staphylococcus aureus ATCC 33591.
Test [6] deals with Acinetobacter baumannii CCARM 12005.
The subject of test [7] is Acinetobacter baumannii CCARM 12035.
Test [8] has as its system Acinetobacter baumannii CCARM 12036.
Test [9] has as its system Acinetobacter baumannii CCARM 12037.
Test [10] relates to Bacillus subtilis KCTC 1021.
Test [11] has as its system Bacillus subtilis KCTC 1022.
Test [12] deals with Bacillus subtilis KCTC 3068.
Test [13] concerns Escherichia coli CCARM 1229.
Test [14] concerns Escherichia coli CCARM 1238.
Test [15] relates to Escherichia coli KCTC 1682.
The test system of test [16] is Escherichia coli KCTC 2571.
Test [17] has as its system Escherichia coli KCTC 2593.
For test [18], the system named is Pseudomonas aeruginosa CCARM 2002.
For test [19], the system named is Pseudomonas aeruginosa CCARM 2003.
Test [20] has as its system Pseudomonas aeruginosa CCARM 2095.
Test [21] deals with Pseudomonas aeruginosa CCARM 2163.
The test system of test [22] is Pseudomonas aeruginosa KCTC 1637.
Test [23] relates to Pseudomonas aeruginosa KCTC 2004.
For test [24], the system named is Pseudomonas aeruginosa KCTC 2513.
The test system of test [25] is Salmonella typhimurium CCARM 8003.
Test [26] concerns Salmonella typhimurium CCARM 8007.
Test [27] concerns Salmonella typhimurium CCARM 8009.
Test [28] relates to Salmonella typhimurium KCTC 1926.
Test [29] deals with Staphylococcus aureus CCARM 3089.
Test [30] deals with Staphylococcus aureus CCARM 3090.
Test [31] concerns Staphylococcus aureus CCARM 3108.
The subject of test [32] is Staphylococcus aureus CCARM 3114.
Test [33] relates to Staphylococcus aureus CCARM 3126.
Test [34] has as its system Staphylococcus aureus KCTC 1621.
For test [35], the system named is Staphylococcus aureus KCTC 1916.
Test [36] concerns Staphylococcus aureus KCTC 3881.
Test [37] relates to Staphylococcus epidermidis KCTC 1917.
Test [38] concerns Salmonella enterica subsp. enterica serovar Typhi DMST 22842.
Test [39] relates to Staphylococcus aureus ATCC 25923.
In test [40] the test system is Staphylococcus epidermidis ATCC 12228.

The structures appear in SMILES notation. Values after ≈ are worked out from the molar mass of the structure shown. Some results are limits rather than exact numbers.

Take `CC[C@H](C)[C@H](NC(=O)[C@H](CCCCN)NC(=O)[C@H](CCCCN)NC(=O)[C@H](CC(C)C)NC(=O)[C@H](CC(C)C)NC(=O)CN)C(=O)N[C@@H](CCCCN)C(=O)N[C@@H](Cc1c[nH]c2ccccc12)C(=O)N[C@@H](CC(C)C)C(=O)N[C@@H](CC(C)C)C(N)=O` [GLLKKIKWLL]: the MIC (as a rule, the smallest concentration in the dilution series that meets the test's criterion for growth inhibition) in [1] is no less than 47.4 µM; in [2] it was 22.1 µM (≈ 26.8 µg/mL); in test [3], 12.5 µM (≈ 15.1 µg/mL); in test [4], 28.4 µM (≈ 34.4 µg/mL); in [5] it was 28.4 µM (≈ 34.4 µg/mL).
For the compound `CC[C@H](C)[C@H](NC(=O)CNC(=O)[C@H](CCCN=C(N)N)NC(=O)[C@H](Cc1ccccc1)NC(=O)[C@@H](NC(=O)[C@H](Cc1cnc[nH]1)NC(=O)[C@H](Cc1cnc[nH]1)NC(=O)[C@H](C)NC(=O)[C@@H](N)Cc1ccccc1)[C@@H](C)CC)C(=O)N[C@H](C(=O)N[C@@H](Cc1cnc[nH]1)C(=O)N[C@H](C(=O)NCC(=O)N[C@@H](CCCCN)C(=O)N[C@H](C(=O)N[C@H](C(=O)N[C@@H](Cc1cnc[nH]1)C(=O)N[C@@H](CCCN=C(N)N)C(=O)N[C@@H](CC(C)C)C(=O)N[C@H](C(=O)N[C@H](C(=O)NCC(=O)O)[C@@H](C)O)C(C)C)[C@@H](C)CC)[C@@H](C)O)C(C)C)C(C)C` [FAHHIFRGIVHVGKTIHRLVTG], the MIC in test [6] was 4 µM (≈ 9.98 µg/mL); in [7] it was 4 µM (≈ 9.98 µg/mL); in test [8] it was 4 µM (≈ 9.98 µg/mL); in test [9], 4 µM (≈ 9.98 µg/mL); in test [10] it was 8 µM (≈ 20 µg/mL); in [11], 1 µM (≈ 2.5 µg/mL). Moreover, the MIC in [12] was found to be 4 µM (≈ 9.98 µg/mL); in [13], 16 µM (≈ 39.9 µg/mL); in test [14], 16 µM (≈ 39.9 µg/mL); in [15], 2 µM (≈ 4.99 µg/mL); in [16], 2 µM (≈ 4.99 µg/mL); in [17], 2 µM (≈ 4.99 µg/mL). Further, the MIC was found to be 4 µM (≈ 9.98 µg/mL) in test [18]; 4 µM (≈ 9.98 µg/mL) in [19]; 4 µM (≈ 9.98 µg/mL) in test [20]; 4 µM (≈ 9.98 µg/mL) in test [21]; 4 µM (≈ 9.98 µg/mL) in test [22]; 8 µM (≈ 20 µg/mL) in test [23]. The MIC in test [24] is 8 µM (≈ 20 µg/mL); in [25], no less than 32 µM; in test [26], 16 µM (≈ 39.9 µg/mL); in [27], 16 µM (≈ 39.9 µg/mL); in [28], 16 µM (≈ 39.9 µg/mL); in test [29], 16 µM (≈ 39.9 µg/mL). The minimal inhibitory concentration (MIC) is 16 µM (≈ 39.9 µg/mL) in [30]; 16 µM (≈ 39.9 µg/mL) in [31]; 16 µM (≈ 39.9 µg/mL) in [32]; 16 µM (≈ 39.9 µg/mL) in [33]; 4 µM (≈ 9.98 µg/mL) in test [34]; 1 µM (≈ 2.5 µg/mL) in test [35]. Besides, the MIC in test [36] and in test [37] was 2 µM (≈ 4.99 µg/mL) throughout.
Turning to `CC[C@H](C)[C@H](NC(=O)CNC(=O)[C@H](CCCN=C(N)N)NC(=O)[C@H](Cc1ccccc1)NC(=O)[C@@H](NC(=O)[C@H](Cc1cnc[nH]1)NC(=O)[C@H](Cc1cnc[nH]1)NC(=O)[C@H](CCCCN)NC(=O)[C@@H](N)Cc1ccccc1)[C@@H](C)CC)C(=O)N[C@@H](CCCCN)C(=O)N[C@@H](Cc1cnc[nH]1)C(=O)N[C@H](C(=O)NCC(=O)N[C@@H](CCCCN)C(=O)N[C@H](C(=O)N[C@H](C(=O)N[C@@H](Cc1cnc[nH]1)C(=O)N[C@@H](CCCN=C(N)N)C(=O)N[C@@H](CC(C)C)C(=O)N[C@H](C(=O)N[C@H](C(=O)NCC(=O)O)[C@@H](C)O)C(C)C)[C@@H](C)CC)[C@@H](C)O)C(C)C` [FKHHIFRGIKHVGKTIHRLVTG], the MIC in test [6] was determined as 2 µM (≈ 5.16 µg/mL); in [7], 2 µM (≈ 5.16 µg/mL); in test [8], 2 µM (≈ 5.16 µg/mL); in test [9], 2 µM (≈ 5.16 µg/mL); in test [10] it was 8 µM (≈ 20.7 µg/mL); in [11] it was 4 µM (≈ 10.3 µg/mL). Besides, the minimal inhibitory concentration (MIC) turned out to be 2 µM (≈ 5.16 µg/mL) in test [12]; 8 µM (≈ 20.7 µg/mL) in [13]; 8 µM (≈ 20.7 µg/mL) in test [14]; 1 µM (≈ 2.58 µg/mL) in test [15]; 4 µM (≈ 10.3 µg/mL) in [16]; 4 µM (≈ 10.3 µg/mL) in test [17]. In addition, the MIC in [18] was 2 µM (≈ 5.16 µg/mL); in test [19], 2 µM (≈ 5.16 µg/mL); in test [20], 2 µM (≈ 5.16 µg/mL); in test [21] it was 2 µM (≈ 5.16 µg/mL); in test [22] it was 1 µM (≈ 2.58 µg/mL); in test [23], 8 µM (≈ 20.7 µg/mL). Also, the MIC in test [24] is 8 µM (≈ 20.7 µg/mL); in test [25], 16 µM (≈ 41.3 µg/mL); in [26], 8 µM (≈ 20.7 µg/mL); in test [27] it was 8 µM (≈ 20.7 µg/mL); in test [28], 2 µM (≈ 5.16 µg/mL); in test [29] it was 8 µM (≈ 20.7 µg/mL). Besides, the MIC in test [30] worked out at 8 µM (≈ 20.7 µg/mL); in [31], 8 µM (≈ 20.7 µg/mL); in test [32], 8 µM (≈ 20.7 µg/mL); in test [33] it was 8 µM (≈ 20.7 µg/mL); in test [34], 2 µM (≈ 5.16 µg/mL); in [35], 4 µM (≈ 10.3 µg/mL). The MIC in [36] and in [37] was 4 µM (≈ 10.3 µg/mL) in each case.
As to `CC(C)[C@H](NC(=O)CNC(=O)[C@@H](N)CC(N)=O)C(=O)N[C@@H](CCC(N)=O)C(=O)N1CCC[C@H]1C(=O)N[C@@H](CCCCN)C(=O)N[C@@H](Cc1ccc(O)cc1)C(=O)N[C@@H](CCCN=C(N)N)C(=O)N[C@@H](Cc1c[nH]c2ccccc12)C(=O)N[C@@H](Cc1c[nH]c2ccccc12)C(=O)N[C@@H](CCCN=C(N)N)C(=O)N[C@@H](Cc1c[nH]c2ccccc12)C(=O)N[C@@H](Cc1c[nH]c2ccccc12)C(=O)N[C@@H](CCCN=C(N)N)C(=O)N[C@@H](CCCN=C(N)N)C(=O)N[C@@H](Cc1c[nH]c2ccccc12)C(=O)N[C@@H](Cc1c[nH]c2ccccc12)C(=O)N[C@@H](Cc1c[nH]c2ccccc12)C(=O)N[C@@H](Cc1c[nH]c2ccccc12)C(N)=O` [NGVQPKYRWWRWWRRWWWW], the minimal inhibitory concentration (MIC) in test [3] is greater than 31.2 µM; in test [4] it was greater than 31.2 µM; in test [38], 31.2 µM (≈ 91 µg/mL); in test [39], greater than 31.2 µM; in test [40] it was 31.2 µM (≈ 91 µg/mL).
On to `CC[C@H](C)[C@H](NC(=O)[C@H](Cc1ccccc1)NC(=O)[C@H](CCCCN)NC(=O)[C@H](CC(C)C)NC(=O)[C@H](CC(C)C)NC(=O)CN)C(=O)N[C@@H](CCCCN)C(=O)N[C@@H](Cc1c[nH]c2ccccc12)C(=O)N[C@@H](CC(C)C)C(=O)N[C@@H](CC(C)C)C(N)=O` [GLLKFIKWLL], for which the MIC in [1] is no less than 47.4 µM; in [2], 0.8 µM (≈ 0.984 µg/mL); in test [3], 22.1 µM (≈ 27.2 µg/mL); in [4] it was 256 µM (≈ 315 µg/mL); in test [5], 7.4 µM (≈ 9.1 µg/mL).
